According to article PMC12030000 (Pharmaceuticals, 2025):

System: ALS patient-derived iMNs (C9orf72 pathology)
Experiment: iPSC-derived motor neuron (iMN) survival assay with neurotrophic factor withdrawal
Format: cell-based, human
Details: for Median survival time of treated ALS iMNs: ALS patient-derived iMNs, 14-day period; for Surviving iMNs (cell count): 300 tracked ALS iMNs on day 0
Procedure: In this study, iPSC-derived iMNs were generated from PALS (C9orf72 pathology) and from healthy donors' PBMCs. Neuronal survival rate was compared between PrimeC's components, their combination, and the relevant DMSO vehicle reference as described in Figure 2A-C. […] form between days 13 and 16 after transduction of iMN factors. The iMN survival assay was initiated on day 17. Starting at Day 17, longitudinal tracking of iMNs was performed using Molecular Devices ImageExpress once every other day for 16 days. Tracking of neuronal survival was performed using ImageJ version 1.53t. Neurons were scored as dead when their soma was no longer detectable by RFP fluorescence. iMN survival experiments included neurotrophic factor withdrawal in order to exacerbate the survival difference between control and PALS' iMNs. Neurotrophic factor withdrawal of FGF-2, BDNF, GDNF, and CNTF from the culture medium was performed on day 17. For treatment with drugs, cultures were treated with DMSO or a drug after neurotrophic factor withdrawal (starting at day 17). Treatment with fresh media containing vehicle or drugs occurred every 3 days for 16 days. […] Control cell lines of non-neurological subjects (i.e., neurologically healthy controls) were used in the comparisons. […] A hazard ratio was calculated for each of the comparisons as the likelihood of neuron death when treated with the indicated compound divided by the likelihood of neuron death when treated with another indicated compound. The lower the ratio, the […] it is for a cell to die when treated with the second compound compared to being treated with the first compound in each comparison above, and vice versa. Analysis utilized GraphPad Prism version 10.0.2 GraphPad. […] Kaplan-Meier plots were generated using iMNs obtained from each treatment condition in replicates of three. Confirmation of iMN survival times was analyzed by manual longitudinal tracking.

[1] = day 16, day 16 excluded from survival analyses

SMILES | Median survival time of treated ALS iMNs [days] | Surviving iMNs (cell count) (day 2) | Surviving iMNs (cell count) (day 4) | Surviving iMNs (cell count) (day 6) | Surviving iMNs (cell count) (day 8) | Surviving iMNs (cell count) (day 10) | Surviving iMNs (cell count) (day 12) | Surviving iMNs (cell count) (day 14) | Surviving iMNs (cell count) [1]
Cc1ccc(-c2cc(C(F)(F)F)nn2-c2ccc(S(N)(=O)=O)cc2)cc1 [Celecoxib, celecoxib] | 8 | 300 | 272 | 227 | 190 | 139 | 104 | 79 | 55
O=C(O)c1cn(C2CC2)c2cc(N3CCNCC3)c(F)cc2c1=O [Ciprofloxacin, ciprofloxacin] | 8 | 300 | 262 | 238 | 210 | 177 | 146 | 118 | 74
